The results in this text go back to patent US10246457B2, “Indazole and azaindazole Btk inhibitors” (MERCK SHARP & DOHME CORP., priority 2015, dated 2019).

In assay [1] the target is 100P Btk enzyme (activated full-length Btk) (Homo sapiens (Human), UniProt Q06187). Kind of assay: 100P Btk Enzyme Activity Assay (LANCE TR-FRET). Conditions: activated Btk (100P), 25 μM ATP, 60 minute compound and enzyme incubation; top concentration 1000 nM; read-out: Btk binding IC50 (nM) with 100 P. Format: biochemical. The method, then: Activated full-length Btk recombinant enzyme was expressed and purified in the same manner as the […] enzyme, except an auto-phosphorylation step was added to the purification scheme. […] This protein represents the activated state of the Btk enzyme. […] Btk Enzyme Activity Assay Btk enzymatic activity was determined with the LANCE (Lanthanide Chelate Excite) TR-FRET (lime-resolved fluorescence resonance energy transfer) assay. […] MW=79378 Da). […] Phosphorylation reactions were allowed to proceed for 45 minutes. […] After 60 minutes incubation with detection reagents, reaction plates were read on a PerkinElmer EnVision plate reader using standard TR-FRET protocol. Briefly, excitation of donor molecules (Eu-chelate:anti-phospho-antibody) with a laser light source at 337 nm produces energy that can be transferred to Dylight-650 acceptor molecules if this donor:acceptor pair is within close proximity. Fluorescence intensity at both 665 nm (acceptor) and 615 nm (donor) are measured and a TR-FRET ratio calculated for each well (acceptor intensity/donor intensity). […] (Log10) compound concentrations.

The target in assay [2] is 25P Btk enzyme (un-activated full-length Btk) (Homo sapiens (Human), UniProt Q06187). The experiment in a line: 25P Btk Enzyme Activity Assay (LANCE TR-FRET). Format: biochemical. Conditions: un-activated Btk (25P), 25 μM ATP, 60 minute compound and enzyme incubation; read-out: Btk binding IC50 (nM) with 25 P. The method, then: Preparation of Un-Activated Btk Enzyme (25P Btk)
Un-activated full-length Btk recombinant protein was purified from baculovirus-transfected Sf21 cells. […] This protein represents the un-activated state of the Btk enzyme.
25P Btk Enzyme Activity Assay
Btk enzymatic activity was determined with the LANCE (Lanthanide Chelate Excite) TR-FRET (lime-resolved fluorescence resonance energy transfer) assay. […] To each well of a black non-binding surface Corning 384-well microplate (Corning Catalog #3820), 5 nL of compound (2000 fold dilution in final assay volume of 10 μL) was dispensed, followed by the addition of 7.5 μL of 1× kinase buffer (50 mM Hepes 7.5, 10 mM MgCl2, 0.01% Brij-35, 1 mM EGTA, 0.05% BSA and 1 mM DTT) containing 26.67 pg/μL (266.7 pM) of 25P Btk enzyme (recombinant protein from baculovirus-transfected Sf9 cells: full-length Btk; MW=79378 Da). Following a 60 minute compound and enzyme incubation, each reaction was initiated by the addition of 2.5 μL 1× kinase buffer containing 8 μM biotinylated “A5” peptide (Biotin-EQEDEPEGDYFEWLE-NH2), and 100 μM ATP. The final reaction in each well of 10 consists of 200 pM 25P Btk, 2 μM biotin-A5-peptide, and 25 μM ATP. Phosphorylation reactions were allowed to proceed for 120 minutes. Reactions were immediately quenched by the addition of 20 uL of 1× quench buffer (15 mM EDTA, 25 mM Hepes 7.3, and 0.1% Triton X-100) containing detection reagents (0.626 nM of LANCE-Eu-W1024-anti-phosphoTyrosine antibody, PerkinElmer and 86.8 nM of Streptavidin-conjugated Dylight 650, Dyomics/ThermoFisher Scientific). After 60 minutes incubation with detection reagents, reaction plates were read on a PerkinElmer EnVision plate reader using standard TR-FRET protocol. Briefly, excitation of donor molecules (Eu-chelate:anti-phospho-antibody) with a laser light source at 337 nm produces energy that can be transferred to Dylight-650 acceptor molecules if this donor:acceptor pair is within close proximity. Fluorescence intensity at both 665 nm (acceptor) and 615 nm (donor) are measured and a TR-FRET ratio calculated for each well (acceptor intensity/donor intensity). IC50 values were determined by 4 parameter robust fit of TR-FRET ratio values vs. (Log10) compound concentrations.
(In general: Time-resolved FRET reads energy transfer from a long-lived donor to a nearby acceptor.)

Chain of 25P Btk enzyme (un-activated full-length Btk) (Q06187 whole entry): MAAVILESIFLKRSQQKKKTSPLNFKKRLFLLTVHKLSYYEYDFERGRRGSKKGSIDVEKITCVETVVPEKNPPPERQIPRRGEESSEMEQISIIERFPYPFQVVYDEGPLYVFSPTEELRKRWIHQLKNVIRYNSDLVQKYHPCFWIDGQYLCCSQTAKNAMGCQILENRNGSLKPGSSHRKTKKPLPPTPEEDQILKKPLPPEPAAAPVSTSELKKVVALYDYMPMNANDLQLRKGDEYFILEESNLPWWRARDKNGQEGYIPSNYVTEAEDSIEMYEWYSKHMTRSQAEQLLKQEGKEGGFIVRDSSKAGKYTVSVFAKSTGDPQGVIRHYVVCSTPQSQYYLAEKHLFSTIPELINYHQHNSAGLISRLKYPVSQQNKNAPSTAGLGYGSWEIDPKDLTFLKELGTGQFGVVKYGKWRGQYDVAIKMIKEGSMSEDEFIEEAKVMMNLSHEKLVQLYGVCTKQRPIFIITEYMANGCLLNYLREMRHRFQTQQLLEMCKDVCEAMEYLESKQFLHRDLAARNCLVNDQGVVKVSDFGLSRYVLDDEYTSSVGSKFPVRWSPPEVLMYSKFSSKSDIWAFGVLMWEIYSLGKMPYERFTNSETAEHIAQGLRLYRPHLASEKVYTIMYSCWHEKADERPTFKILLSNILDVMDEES
Chain of 100P Btk enzyme (activated full-length Btk) (Q06187 whole entry): as above

A word on the IC50: it is the concentration that inhibits the measured activity by half. `Cn1cc(-c2cc(-c3cccc(-n4ncc5cc(C(C)(C)C)cc(F)c5c4=O)c3CO)cc3c(N)n[nH]c23)cn1` [Example 9, 2-{3-[3-amino-7-(1-methyl-1H-pyrazol-4-yl)-1H-indazol-5-yl]-2-(hydroxymethyl)phenyl}-6-tert-butyl-8-fluorophthalazin-1(2H)-one]: the IC50 in assay [1] was 5.3 nM; in assay [2] it was 0.073 nM.

Turning to `CC(C)(C)c1cc(F)c2c(=O)n(-c3cccc(-c4cc(-c5ccccc5)c5[nH]nc(N)c5c4)c3CO)ncc2c1` [Example 19, 2-[3-(3-amino-7-phenyl-1H-indazol-5-yl)-2-(hydroxymethyl)phenyl]-6-tert-butyl-8-fluorophthalazin-1(2H)-one], the IC50 in assay [1] is 429 nM; in assay [2], 0.48 nM.

Take `CC(C)(C)c1cc(F)c2c(=O)n(-c3cccc(-c4cc(-c5ccccn5)c5[nH]nc(N)c5c4)c3CO)ncc2c1` [Example 22, 2-(3-(3-amino-7-(pyridin-2-yl)-1H-indazol-5-yl)-2-(hydroxymethyl)phenyl)-6-(tert-butyl)-8-fluorophthalazin-1(2H)-one]: the 50% inhibitory concentration (IC50) in assay [1] is 17.4 nM; in assay [2] it was 0.11 nM.

As for `CC(C)(C)c1cc(F)c2c(=O)n(-c3cccc(-c4cc(-c5cnn(CC(=O)O)c5)c5[nH]nc(N)c5c4)c3CO)ncc2c1` [Example 23, 2-(4-(3-amino-5-(3-(6-(tert-butyl)-8-fluoro-1-oxophthalazin-2(1H)-yl)-2-(hydroxymethyl)phenyl)-1H-indazol-7-yl)-1H-pyrazol-1-yl)acetic acid], the figures for the IC50 in assay [1] and in assay [2] were 20 nM and 0.18 nM, respectively.

In the case of `Cc1cc2[nH]nc(N)c2cc1-c1cccc(-n2ncc3cc(C(C)(C)C)cc(F)c3c2=O)c1CO` [Example 2, 2-[3-(3-amino-6-methyl-1H-indazol-5-yl)-2-(hydroxymethyl)phenyl]-6-tert-butyl-8-fluorophthalazin-1(2H)-one], the IC50 in assay [1] turned out to be 341 nM; in assay [2], 10.9 nM.

On to `CNC(=O)c1cc(-c2cccc(-n3ncc4cc(C(C)(C)C)cc(F)c4c3=O)c2CO)cc2c(N)n[nH]c12` [Example 11, 3-amino-5-[3-(6-tert-butyl-8-fluoro-1-oxophthalazin-2(1H)-yl)-2-(hydroxymethyl)phenyl]-N-methyl-1H-indazole-7-carboxamide], for which the half-inhibitory concentration (IC50) came out at 29.3 nM in assay [1] and 0.16 nM in assay [2].

For `CC(C)(C)c1cc(F)c2c(=O)n(-c3cccc(-c4cc(-c5cnn6c5CCCC6)c5[nH]nc(N)c5c4)c3CO)ncc2c1` [Example 28, 2-(3-(3-amino-7-(4,5,6,7-tetrahydropyrazolo[1,5-a]pyridin-3-yl)-1H-indazol-5-yl)-2-(hydroxymethyl)phenyl)-6-(tert-butyl)-8-fluorophthalazin-1(2H)-one], the IC50 in assay [1] turned out to be 360 nM; in assay [2], 1.7 nM.

`CC(C)(C)c1cc(F)c2c(=O)n(-c3cccc(-c4cc(-c5cnn(C6CCOCC6)c5)c5[nH]nc(N)c5c4)c3CO)ncc2c1` [Example 25, 2-(3-(3-amino-7-(1-(tetrahydro-2H-pyran-4-yl)-1H-pyrazol-4-yl)-1H-indazol-5-yl)-2-(hydroxymethyl)phenyl)-6-(tert-butyl)-8-fluorophthalazin-1(2H)-one]: the values for the 50% inhibitory concentration (IC50) in assay [1] and in assay [2] were 2.6 nM and 0.18 nM, respectively.
